Measurements from patent US6875760B2 (Novo Nordisk A/S, priority 1999, dated 2005).
pIC50: −log10 of the molar value.

What follows are compounds tested against T1, cloned human glucagon receptor (Homo sapiens, UniProt P47871) (assay: Glucagon Binding Assay (II)). Conditions: not given.
T1 construct: expressed in transfected cells; plasma membrane preparation
Procedure: Binding of compounds to the glucagon receptor was determined in a competition binding assay using the cloned human glucagon receptor.
The receptor inserted in the pLJ6′ expression vector using EcoRI/SSt1 restriction sites (Lok et al.) was expressed in a baby hamster kidney cell line (A3 BHK 570-25).
The homogenate was resuspended and centrifuged again. The final precipitate containing the plasma membranes was suspended in buffer and stored at −80° C. until use.
Binding assays were carried out in duplicate in polypropylene tubes or microtiter plates. The buffer used in this assay was 50 mM HEPES pH 7.4 containing 5 mM EGTA, 5 mM MgCl2 and 0.005% Tween 20. Sample (glucagon (Bachem CA) or test compounds) was added to each tube or well. Tracer (˜25.000 cpm) was diluted in buffer and was added to each tube or well. 0.5 mg freshly thawed plasma membrane protein diluted in buffer was then added in aliquots to each tube or well. Tubes or plates were incubated at 37° C. for 1 hour. Non-specific binding was determined with 10^−7 M of glucagon. Bound tracer and unbound tracer were then separated by vacuum filtration. The tubes or wells were washed twice with 0.01% Triton X-100 buffer. Scintillation fluid was added to the plates and radioactivity was quantified using a scintillation counter.

T1 sequence (P47871 26-477): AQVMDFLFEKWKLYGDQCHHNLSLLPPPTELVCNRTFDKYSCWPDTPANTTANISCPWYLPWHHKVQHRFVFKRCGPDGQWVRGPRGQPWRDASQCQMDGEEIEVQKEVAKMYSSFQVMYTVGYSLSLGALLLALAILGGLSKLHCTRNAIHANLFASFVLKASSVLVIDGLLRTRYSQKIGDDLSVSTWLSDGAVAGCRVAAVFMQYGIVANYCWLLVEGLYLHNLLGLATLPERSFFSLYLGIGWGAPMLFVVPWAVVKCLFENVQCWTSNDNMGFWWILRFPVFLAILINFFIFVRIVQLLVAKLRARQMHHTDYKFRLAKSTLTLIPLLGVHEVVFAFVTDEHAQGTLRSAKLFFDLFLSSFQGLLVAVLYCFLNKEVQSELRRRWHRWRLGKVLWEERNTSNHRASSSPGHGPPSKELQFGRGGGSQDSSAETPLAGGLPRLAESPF

SMILES | pIC50
CC(C)(C)C1CCC(N(Cc2ccc(C(=O)NCCC(=O)O)cc2)C(=O)Nc2ccc(Cl)c(Cl)c2)CC1 (centres unmarked) [drawing 1169] | 6.65

Same assay, conditions: plasma membranes of BHK cells expressing the receptor; read-out: Glu Bd Assay (II) IC50

SMILES | pIC50
CC(C)(C)C1CCC(N(Cc2ccc(C(=O)NCCC(=O)O)cc2)C(=O)Nc2ccc(Cl)c(C(F)(F)F)c2)CC1 (centres unmarked) [Example 236] | 7.54
O=C(O)CCNC(=O)c1ccc(CN(C(=O)Nc2ccc3[nH]ccc3c2)c2ccc(C3CCCCC3)cc2)cc1 [Example 607, 3-{4-[1-(4-Cyclohexylphenyl)-3-(1H-indol-5-yl)ureidomethyl]benzoylamino}propionic acid] | 5.73
CC(C)(C)[C@H]1CC[C@@H](N(Cc2ccc(C(=O)NCCC(=O)O)cc2)NC(=O)c2cccc(OC(F)(F)F)c2)CC1 [Example 590, 3-{4-[N-(cis-4-tert-Butylcyclohexyl)-N′-(3-trifluoromethoxybenzoyl)hydrazinomethyl]benzoylamino}propionic acid] | 6.65
CC(C)(C)C1CCC(N(Cc2ccc(C(=O)NCCC(=O)O)cc2)C(=O)Nc2ccc(SC(F)(F)F)cc2)CC1 (centres unmarked) [Example 101, 3-{4-[1-(4-tert-Butylcyclohexyl)-3-(4-trifluoromethylsulfanylphenyl)ureidomethyl]benzoylamino)propionic acid] | 6.92
CC(C)(C)C1CCC(N(Cc2ccc(C(=O)NCCC(=O)O)cc2)C(=O)Nc2ccc(Oc3ccccc3)cc2)CC1 (centres unmarked) [drawing 1168] | 6.92
C[C@@H](C1CCCCC1)N(Cc1ccc(C(=O)NCCC(=O)O)cc1)C(=O)Nc1cc(Cl)cc(Cl)c1 [Example 140, 3-{4-[1-((1S)-1-Cyclohexylethyl)-3-(3,5-dichlorophenyl)ureidomethyl]benzoylamino)propionic acid] | 6.24
CC1CC(C)CC(N(Cc2ccc(C(=O)NCCC(=O)O)cc2)C(=O)Nc2cc(Cl)cc(Cl)c2)C1 (centres unmarked) [Example 177, 3-{4-[3-(3,5-Dichlorophenyl)-1-(3,5-dimethylcyclohexyl)ureidomethyl]benzoylamino)propionic acid] | 6.34
O=C(O)CCNC(=O)c1ccc(CN(C(=O)Nc2ccc(OC(F)(F)F)cc2)C2CC2c2ccccc2)cc1 (centres unmarked) [Example 231, 3-{4-[1-(2-Phenylcyclopropyl)-3-(4-trifluoromethoxyphenyl)ureidomethyl]benzoylamino}propionic acid] | 6.46
O=C(Nc1nn[nH]n1)c1ccc(CN(Cc2cccc(Br)c2)c2ccc(C3CCCCC3)cc2)cc1 [Example 584, 4-{[(3-Bromobenzyl)-(4-cyclohexylphenyl)amino]methyl}-N-(2H-tetrazol-5-yl)benzamide] | 6.55
O=C(Nc1nn[nH]n1)c1ccc(CN(C(=O)Nc2ccc3[nH]ccc3c2)c2ccc(C3CCCCC3)cc2)cc1 [Example 594, 4-{1-(4-Cyclohexylphenyl)-3-(1H-indol-5-yl)ureidomethyl]-N-(2H-tetrazol-5-yl)benzamide] | 6.45
CCCCOC(=O)c1ccc(NC(=O)N(Cc2ccc(C(=O)NCCC(=O)O)cc2)CC(C)(C)C)cc1 | 6.64
O=C(O)CCNC(=O)c1ccc(CN(C(=O)Nc2ccc(OC(F)(F)F)cc2)C2CCC3(CC2)SCCS3)cc1 [Example 178, 3-{4-[1-(1,4-Dithiaspiro[4.5]dec-8-yl)-3-(4-trifluoromethoxyphenyl)ureidomethyl]benzoylamino)propionic acid] | 6.00
O=C(O)CCNC(=O)c1ccc(CN(C(=O)NCc2cc(Cl)cc(Cl)c2)c2ccc(C3CCCCC3)cc2)cc1 [Example 395, 3-{4-[1-(4-Cyclohexylphenyl)-3-(3,5-dichlorobenzyl)ureidomethyl]benzoylamino}propionic acid] | 6.82
CC(C)(C)[C@H]1CC[C@@H](N(Cc2ccc(C(=O)NCCC(=O)O)cc2)NC(=O)c2cc(Cl)cc(Cl)c2)CC1 [Example 588, 3-{4-[N-(cis-4-tert-Butylcyclohexyl)-N′-(3,5-dichlorobenzoyl)hydrazinomethyl]benzoylamino}propionic acid] | 7.12
CC(C)(C)C1CCC(N(Cc2ccc(C(=O)NCCC(=O)O)cc2)C(=O)Nc2cc(Cl)cc(Cl)c2)CC1 (centres unmarked) [Example 104, 3-{4-[1-(4-tert-Butylcyclohexyl)-3-(3,5-dichlorophenyl)ureidomethyl]benzoylamino)propionic acid] | 7.30
CC(C)(C)[C@H]1CC[C@H](N(Cc2ccc(C(=O)NCCC(=O)O)cc2)Cc2cccc(S(C)(=O)=O)c2)CC1 [Example 613, 3-(4-{[(trans-4-tert-Butylcyclohexyl)-(3-methylsulfonylbenzyl)amino]methyl}benzoylamino)propionic acid] | 6.24
CC(C)(C)C1CCC(N(Cc2ccc(S(=O)(=O)NCCC(=O)O)cc2)C(=O)Nc2ccc(OC(F)(F)F)cc2)CC1 (centres unmarked) [Example 106, 3-{4-[1-(4-tert-Butylcyclohexyl)-3-(4-trifluoromethoxyphenyl)ureidomethyl]benzenesulfonylamino)propionic acid] | 6.33

Same assay, conditions: screened at 1 μM; library compounds; read-out: displacement of the glucagon tracer when screened at 1 μM concentration in the glucagon binding assay II

SMILES | inhibition at 1 µM
O=C(O)CCNC(=O)c1ccc(CN(C(=O)Nc2ccc(Cl)c(C(F)(F)F)c2)[C@@H](CO)CC2CCCCC2)cc1 (stereo in doubt) [Example 189, 3-{4-[3-(4-Chloro-3-trifluoromethylphenyl)-1-(2-cyclohexyl-1-hydroxymethylethyl)ureidomethyl]benzoylamino}propionic acid] | > 50%
O=C(O)CCNC(=O)c1ccc(CN(Cc2ccc(Br)cc2)C(=O)Nc2ccc(Cl)c(C(F)(F)F)c2)cc1 [Example 190, 3-{4-[1-(4-Bromobenzyl)-3-(4-chloro-3-trifluoromethylphenyl)ureidomethyl]benzoylamino}propionic acid] | > 50%
CC(C)(C)c1ccc(CN(Cc2ccc(C(=O)NCCC(=O)O)s2)C(=O)Nc2ccc(SC(F)(F)F)cc2)cc1 [Example 130, 3-{5-[1-(4-tert-Butylbenzyl)-3-(4-trifluoromethylsulfanylphenyl)ureidomethyl]thiophene-2-carbonylamino)propionic acid] | > 50%
O=C(O)CCNC(=O)c1ccc(CN(CC2(O)CCCCC2)C(=O)Nc2ccc3c(c2)OCO3)cc1 [Example 123, 3-{4-[1-(1-Hydroxycyclohexylmethyl)-3-(3,4-methylenedioxyphenyl)ureidomethyl]benzoylamino)propionic acid] | > 50%
CC(=O)N1CCc2cc(N(Cc3ccc(C(=O)NCCC(=O)O)cc3)C(=O)NCOc3ccc4ccccc4c3)ccc21 [Example 206, 3-{4-[1-(1-Acetyl-2,3-dihydro-1H-indol-5-yl)-3-(naphthalen-2-yloxymethyl)ureidomethyl]benzoylamino}propionic acid] | > 50%
Cc1cc(C)cc(NC(=O)N(Cc2ccc(OCCCC(=O)O)cc2)C2CCC(C(C)(C)C)CC2)c1 (centres unmarked) [Example 227, 4-{4-[1-(4-tert-Butylcyclohexyl)-3-(3,5-dimethylphenyl)ureidomethyl]phenoxy}butyric acid] | > 50%
O=C(O)CCCOc1ccc(CN(C(=O)Nc2ccc(OC(F)(F)F)cc2)C2C[C@H]2c2ccccc2)cc1 (stereo in doubt) [Example 222, 4-{4-[1-(2-Phenylcyclopropyl)-3-(4-trifluoromethoxyphenyl)ureidomethyl]phenoxy}butyric acid] | > 50%
CC(C)(C)C1CCC(N(Cc2ccc(C(=O)NCCC(=O)O)cc2)C(=O)NC2CC2c2ccccc2)CC1 (centres unmarked) [Example 132, 3-{4-[1-(4-tert-Butylcyclohexyl)-3-(2-phenylcyclopropyl)ureidomethyl]benzoylamino)propionic acid] | > 50%
O=C(O)CCNC(=O)c1ccc(CN(C(=O)Nc2ccc(Cl)c(C(F)(F)F)c2)C2C[C@H]2c2ccccc2)cc1 (stereo in doubt) [Example 188, 3-{4-[3-(4-Chloro-3-trifluoromethylphenyl)-1-(2-phenylcyclopropyl)ureidomethyl]benzoylamino}propionic acid] | > 50%
O=C(O)CCNC(=O)c1ccc(CN(CCc2cccc(Cl)c2)C(=O)Nc2ccc(OC(F)(F)F)cc2)cc1 [Example 180, 3-{4-[1-[2-(3-Chlorophenyl)ethyl]-3-(4-trifluoromethoxyphenyl)ureidomethyl]benzoylamino}propionic acid] | > 50%
CC(C)(C)C1CCC(N(Cc2ccc(C(=O)Nc3ccc4c(c3)OCCO4)cc2)C(=O)Nc2ccc(Cl)cc2)CC1 (centres unmarked) [Example 160, 4-[1-(4-tert-Butylcyclohexyl)-3-(4-chlorophenyl)ureidomethyl]-N-(2,3-dihydro-1,4-benzodioxin-6-yl)benzamide] | > 50%
CC(C)(C)C1CCC(N(Cc2ccc(C(=O)Nc3ccc4c(c3)C(=O)NC4=O)cc2)C(=O)Nc2ccc(Cl)cc2)CC1 (centres unmarked) [Example 166, 4-[1-(4-tert-Butylcyclohexyl)-3-(4-chlorophenyl)ureidomethyl]-N-(1,3-dioxo-2,3-dihydro-1H-isoindol-5-yl)benzamide] | > 50%
COc1cc(CN(Cc2ccc(C(=O)NCCC(=O)O)cc2)C(=O)Nc2ccc(C)cc2)ccc1O [Example 121, 3-{4-[1-(4-Hydroxy-3-methoxybenzyl)-3-(4-methylphenyl)ureidomethyl]benzoylamino)propionic acid] | > 50%
CC(C)(C)C1CCC(N(Cc2ccc(OCCCC(=O)O)cc2)C(=O)Nc2ccc(OC(F)(F)F)cc2)CC1 (centres unmarked) [Example 224, 4-{4-[1-(4-tert-Butylcyclohexyl)-3-(4-trifluoromethoxyphenyl)ureidomethyl]phenoxy}butyric acid] | > 50%
